Laboratory results from patent publication US11168073B2, “3,3-difluoroallylamines or salts thereof and pharmaceutical compositions comprising the same” (YUHAN CORPORATION, priority 2018, dated 2021).
Where a name gives a salt, the structure may show the parent alone. Read-outs that look alike come from different tables or passages of the source.

Tests used:
Assay type in all cases: biochemical
[1] = molecular target: T1, recombinant human VAP-1 (Homo sapiens, UniProt Q16853); assay: Activity evaluation on recombinant human VAP-1 (Amplex Red/HRP-coupled hydrogen peroxide assay, benzylamine substrate); conditions: read-out: Inhibitory Activity (IC50, nM) human VAP-1
T1 construct: purchased R&D systems
T1 sequence (Q16853 1-763): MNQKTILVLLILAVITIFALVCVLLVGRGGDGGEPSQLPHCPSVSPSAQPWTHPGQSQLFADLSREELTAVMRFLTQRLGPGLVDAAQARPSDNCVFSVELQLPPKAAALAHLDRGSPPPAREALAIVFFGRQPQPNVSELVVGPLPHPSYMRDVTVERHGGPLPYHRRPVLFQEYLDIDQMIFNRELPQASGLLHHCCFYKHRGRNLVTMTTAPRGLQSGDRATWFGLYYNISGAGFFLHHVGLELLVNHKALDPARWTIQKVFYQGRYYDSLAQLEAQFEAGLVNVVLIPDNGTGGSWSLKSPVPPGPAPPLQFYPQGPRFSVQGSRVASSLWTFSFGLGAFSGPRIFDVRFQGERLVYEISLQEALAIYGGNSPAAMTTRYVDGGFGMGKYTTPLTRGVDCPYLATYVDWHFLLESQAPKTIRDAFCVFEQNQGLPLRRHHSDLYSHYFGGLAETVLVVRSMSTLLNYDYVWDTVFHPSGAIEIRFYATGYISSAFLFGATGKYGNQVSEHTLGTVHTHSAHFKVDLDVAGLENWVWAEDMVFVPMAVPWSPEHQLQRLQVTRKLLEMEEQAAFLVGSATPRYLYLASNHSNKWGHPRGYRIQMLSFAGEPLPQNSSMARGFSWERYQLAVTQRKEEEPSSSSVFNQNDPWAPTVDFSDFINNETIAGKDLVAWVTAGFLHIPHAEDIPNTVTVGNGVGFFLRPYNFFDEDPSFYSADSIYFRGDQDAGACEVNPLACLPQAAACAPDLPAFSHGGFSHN
Summary of the method: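 Hydrogen peroxide from benzylamine (1 mM) oxidation by human recombinant VAP-1 detected via HRP-coupled Amplex Red (200 uM) fluorescence, kinetic over 1–2 h. Enzyme and compound preincubated 30 min at 37 °C, pH 7.4 phosphate; 8-point dose response, signal-rate decrease versus DMSO control fitted to four-parameter logistic for IC50.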

[2] = molecular target: T2, recombinant human MAO-A (monoamine oxidase-A) (Homo sapiens, UniProt P21397); assay: Activity evaluation on recombinant human MAO-A (Amplex Red/HRP-coupled assay, 0.5 mM tyramine substrate); conditions: read-out: Inhibitory Activity (IC50, nM) MAO-A
T2 construct: purchased Sigma-Aldrich
T2 sequence (P21397 1-527): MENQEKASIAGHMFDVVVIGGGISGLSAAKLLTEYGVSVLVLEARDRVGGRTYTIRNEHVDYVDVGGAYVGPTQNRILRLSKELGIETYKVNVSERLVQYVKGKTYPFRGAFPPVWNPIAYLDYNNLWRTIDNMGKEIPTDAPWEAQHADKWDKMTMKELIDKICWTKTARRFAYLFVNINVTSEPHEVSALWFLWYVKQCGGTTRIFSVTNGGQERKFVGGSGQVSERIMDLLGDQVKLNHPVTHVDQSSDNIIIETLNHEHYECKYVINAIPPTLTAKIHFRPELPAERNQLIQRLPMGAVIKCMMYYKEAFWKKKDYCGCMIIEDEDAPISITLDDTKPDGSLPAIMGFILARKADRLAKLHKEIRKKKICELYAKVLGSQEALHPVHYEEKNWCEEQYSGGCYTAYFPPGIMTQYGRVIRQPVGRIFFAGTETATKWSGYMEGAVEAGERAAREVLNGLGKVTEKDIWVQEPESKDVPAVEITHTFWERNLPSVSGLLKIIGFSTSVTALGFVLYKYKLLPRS
Summary of the method: (§1)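 8-pt 1:3 dilution series, final DMSO <1%; 30 min 37 °C preincubation w/ enzyme, 50 mM Na phosphate pH 7.4; + 200 uM Amplex Red, 1 U/mL HRP, substrate (MAO-A tyramine 0.5 mM; MAO-B benzylamine 1 mM; DAO putrescine 1 mM); fluor. rate 544/590 nm, 1-2 h; 4-param IC50.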

[3] = molecular target: T3, recombinant human MAO-B (monoamine oxidase-B) (Homo sapiens, UniProt P27338); assay: Activity evaluation on recombinant human MAO-B (Amplex Red/HRP-coupled assay, 1 mM benzylamine substrate); conditions: read-out: Inhibitory Activity (IC50, nM) MAO-B
T3 construct: purchased Sigma-Aldrich
T3 sequence (P27338 1-520): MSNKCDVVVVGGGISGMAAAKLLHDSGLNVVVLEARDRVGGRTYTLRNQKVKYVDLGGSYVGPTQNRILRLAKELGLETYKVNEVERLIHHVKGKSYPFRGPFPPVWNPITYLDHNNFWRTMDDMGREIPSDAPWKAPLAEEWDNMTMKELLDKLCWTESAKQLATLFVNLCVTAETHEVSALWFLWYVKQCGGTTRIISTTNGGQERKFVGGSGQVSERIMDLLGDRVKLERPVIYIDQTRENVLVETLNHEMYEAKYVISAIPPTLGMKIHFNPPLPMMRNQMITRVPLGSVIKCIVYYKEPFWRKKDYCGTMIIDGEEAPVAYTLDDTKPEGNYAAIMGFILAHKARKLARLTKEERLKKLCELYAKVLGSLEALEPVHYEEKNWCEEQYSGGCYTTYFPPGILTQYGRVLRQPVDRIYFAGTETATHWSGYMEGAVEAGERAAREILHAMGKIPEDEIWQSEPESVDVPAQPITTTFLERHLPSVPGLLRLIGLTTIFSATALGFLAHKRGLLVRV
Summary of the method: as §1

[4] = molecular target: T4, recombinant human DAO (diamine oxidase) (Homo sapiens, UniProt P19801); assay: Activity evaluation on recombinant human DAO (Amplex Red/HRP-coupled assay, 1 mM putrescine substrate); conditions: read-out: Inhibitory Activity (IC50, nM) DAO
T4 construct: purchased R&D systems
T4 sequence (P19801 20-751): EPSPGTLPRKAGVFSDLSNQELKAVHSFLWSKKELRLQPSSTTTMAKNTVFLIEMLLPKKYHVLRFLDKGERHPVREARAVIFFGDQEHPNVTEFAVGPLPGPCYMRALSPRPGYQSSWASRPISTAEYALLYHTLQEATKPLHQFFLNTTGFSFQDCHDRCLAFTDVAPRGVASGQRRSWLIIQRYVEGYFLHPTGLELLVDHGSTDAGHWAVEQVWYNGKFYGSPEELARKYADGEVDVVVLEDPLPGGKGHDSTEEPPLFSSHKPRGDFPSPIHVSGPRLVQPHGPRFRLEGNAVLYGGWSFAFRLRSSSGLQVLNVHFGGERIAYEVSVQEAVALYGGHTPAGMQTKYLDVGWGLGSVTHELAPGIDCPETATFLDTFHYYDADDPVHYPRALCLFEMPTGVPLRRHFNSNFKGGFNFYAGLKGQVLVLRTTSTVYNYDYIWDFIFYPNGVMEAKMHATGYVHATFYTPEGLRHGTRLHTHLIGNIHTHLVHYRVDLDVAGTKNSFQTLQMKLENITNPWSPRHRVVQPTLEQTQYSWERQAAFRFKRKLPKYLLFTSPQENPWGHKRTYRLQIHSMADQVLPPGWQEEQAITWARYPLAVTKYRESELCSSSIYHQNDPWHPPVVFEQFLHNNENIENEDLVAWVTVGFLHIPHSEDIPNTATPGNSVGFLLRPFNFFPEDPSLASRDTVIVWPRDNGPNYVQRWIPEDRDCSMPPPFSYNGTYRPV
Summary of the method: as §1

[5] = recombinant human VAP-1, benzylamine substrate
[6] = recombinant human VAP-1, 30 min preincubation at 37° C., 1 mM benzylamine

Compound	IC50 [1, 5]	IC50 ([2]; 0.5 mM tyramine substrate)	IC50 ([3]; 1 mM benzylamine substrate)	IC50 ([4]; 1 mM putrescine substrate)	IC50 [1, 6]	IC50 ([2]; 0.5 mM tyramine)	IC50 ([3]; 1 mM benzylamine)	IC50 ([4]; 1 mM putrescine)
Cc1cc(-c2ccc(C(=O)N3CCOCC3)cc2)cnc1-n1cnn(CC(CN)=C(F)F)c1=O [Example 236, 2-[2-(aminomethyl)-3,3-difluoro-allyl]-4-[3-methyl-5-[4-(morpholine-4-carbonyl)phenyl]-2-pyridyl]-1,2,4-triazol-3-one Trifluoroacetate]	0.8 nM	> 100000 nM	> 100000 nM	6700 nM	–	–	–	–
CN(C)c1ccc(-c2ccc(Cn3cnn(CC(CN)=C(F)F)c3=O)cc2)cn1 [Example 267, 2-[2-(aminomethyl)-3,3-difluoro-allyl]-4-[[4-[6-(dimethylamino)-3-pyridyl]phenyl]methyl]-1,2,4-triazol-3-one Trifluoroacetate]	1.1 nM	> 100000 nM	> 100000 nM	> 100000 nM	–	–	–	–
CCn1cc(-c2ccccc2Cn2cnn(CC(CN)=C(F)F)c2=O)ccc1=O [Example 285, 5-[2-[[1-[2-(aminomethyl)-3,3-difluoro-allyl]-5-oxo-1,2,4-triazol-4-yl]methyl]phenyl]-1-ethyl-pyridin-2-one Trifluoroacetate]	> 100 nM	> 100000 nM	> 100000 nM	> 100000 nM	–	–	–	–
NCC(Cn1ncn(-c2cccc(Br)n2)c1=O)=C(F)F [Example 8, 2-[2-(aminomethyl)-3,3-difluoro-allyl]-4-(6-bromo-2-pyridyl)-1,2,4-triazol-3-one Trifluoroacetate]	–	–	–	–	2.2 nM	> 100000 nM	> 100000 nM	10500 nM
CCn1cc(-c2cc(C)c(Cn3cnn(CC(CN)=C(F)F)c3=O)s2)cn1 [Example 159, 2-[2-(aminomethyl)-3,3-difluoro-allyl]-4-[[5-(1-ethylpyrazol-4-yl)-3-methyl-2-thienyl]methyl]-1,2,4-triazol-3-one Trifluoroacetate]	–	–	–	–	5.2 nM	> 100000 nM	> 100000 nM	52000 nM
NCC(Cn1ncn(Cc2ccc(-c3cnc(N)nc3)s2)c1=O)=C(F)F [Example 116, 2-[2-(aminomethyl)-3,3-difluoro-allyl]-4-[[5-(2-aminopyrimidin-5-yl)-2-thienyl]methyl]-1,2,4-triazol-3-one Trifluoroacetate]	–	–	–	–	1.4 nM	> 100000 nM	> 10000 nM	> 100000 nM
CCn1cc(-c2cccc(Cn3cnn(CC(CN)=C(F)F)c3=O)c2)ccc1=O [Example 277, 5-[3-[[1-[2-(aminomethyl)-3,3-difluoro-allyl]-5-oxo-1,2,4-triazol-4-yl]methyl]phenyl]-1-ethyl-pyridin-2-one Trifluoroacetate]	2.5 nM	> 100000 nM	68600 nM	1810 nM	–	–	–	–
Cc1cc(-c2ccc3nonc3c2)cnc1-n1cnn(CC(CN)=C(F)F)c1=O [Example 227, 2-[2-(aminomethyl)-3,3-difluoro-allyl]-4-[5-(2,1,3-benzoxadiazol-5-yl)-3-methyl-2-pyridyl]-1,2,4-triazol-3-one Trifluoroacetate]	0.7 nM	> 100000 nM	340 nM	4800 nM	–	–	–	–
CCn1cc(-c2cccc(-c3ccc(Cn4cnn(CC(CN)=C(F)F)c4=O)s3)c2)cn1 [Example 287, 2-[2-(aminomethyl)-3,3-difluoro-allyl]-4-[[5-[3-(1-ethylpyrazol-4-yl)phenyl]-2-thienyl]methyl]-1,2,4-triazol-3-one Trifluoroacetate]	0.7 nM	> 100000 nM	12100 nM	13900 nM	–	–	–	–
CN(C)c1ccc(-c2ccnc(-n3cnn(CC(CN)=C(F)F)c3=O)c2)cn1 [Example 57, 2-[2-(aminomethyl)-3,3-difluoro-allyl]-4-[4-[6-(dimethylamino)-3-pyridyl]-2-pyridyl]-1,2,4-triazol-3-one Trifluoroacetate]	–	–	–	–	0.9 nM	> 100000 nM	56400 nM	30 nM
Cn1c(-c2ccc(Cn3cnn(CC(CN)=C(F)F)c3=O)s2)cnc1Cl [Example 120, 2-[2-(aminomethyl)-3,3-difluoro-allyl]-4-[[5-(2-chloro-3-methyl-imidazol-4-yl)-2-thienyl]methyl]-1,2,4-triazol-3-one Trifluoroacetate]	–	–	–	–	6 nM	> 100000 nM	> 100000 nM	> 100000 nM
CN1C(=O)CCc2cc(-c3cc(F)c(Cn4cnn(CC(CN)=C(F)F)c4=O)s3)ccc21 [Example 301, 6-[5-[[1-[2-(aminomethyl)-3,3-difluoro-allyl]-5-oxo-1,2,4-triazol-4-yl]methyl]-4-fluoro-2-thienyl]-1-methyl-3,4-dihydroquinolin-2-one trifluoroacetate]	0.5 nM	> 100000 nM	> 100000 nM	2680 nM	–	–	–	–
Cc1cc(-c2ccc(S(=O)(=O)N(C)C)cc2)cnc1-n1cnn(CC(CN)=C(F)F)c1=O [Example 238, 4-[6-[1-[2-(aminomethyl)-3,3-difluoro-allyl]-5-oxo-1,2,4-triazol-4-yl]-5-methyl-3-pyridyl]-N,N-dimethyl-benzenesulfonamide trifluoroacetate]	0.14 nM	> 100000 nM	1800 nM	310 nM	–	–	–	–
